In US6825223B2, “Anilide compounds and pharmaceutical compositions comprising them” (Kowa Company, Ltd., priority 1996, dated 2004):

Legend:
[1] = molecular target: T1, ACAT (small intestine-derived enzyme) (Oryctolagus cuniculus, UniProt G1SFD9); assay: ACAT inhibiting activity, small intestine-derived enzyme liquid; format: biochemical, rabbit; details: small intestines of rabbits fed ordinary feed; 14C-oleoyl-CoA; 37° C. 3 minutes
T1 sequence (G1SFD9 1-524): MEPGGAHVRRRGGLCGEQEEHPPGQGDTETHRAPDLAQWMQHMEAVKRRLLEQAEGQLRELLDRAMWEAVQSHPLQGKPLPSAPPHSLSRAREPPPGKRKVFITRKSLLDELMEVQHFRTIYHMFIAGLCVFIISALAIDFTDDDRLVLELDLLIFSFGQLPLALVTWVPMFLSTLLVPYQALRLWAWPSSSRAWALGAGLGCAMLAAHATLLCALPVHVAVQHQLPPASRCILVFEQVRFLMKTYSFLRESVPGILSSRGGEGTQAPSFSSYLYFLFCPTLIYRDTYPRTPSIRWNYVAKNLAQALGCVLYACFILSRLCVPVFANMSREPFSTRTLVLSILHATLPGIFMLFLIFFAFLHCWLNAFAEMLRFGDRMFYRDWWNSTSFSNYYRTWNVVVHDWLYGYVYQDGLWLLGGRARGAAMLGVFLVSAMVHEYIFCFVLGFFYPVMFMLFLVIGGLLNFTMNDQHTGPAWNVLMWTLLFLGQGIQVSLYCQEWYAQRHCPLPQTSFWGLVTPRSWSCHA
Protocol: (§1) Rabbits were fed with 1% cholesterol feed for 8 weeks. Microsomes were prepared from the thoracoaorta of the rabbits in an ordinary manner, and suspended in 0.15 M phosphate buffer (pH 7.4) to prepare blood vessel wall-derived enzyme liquids, Small intestine-derived enzyme liquids were prepared from the small intestines of rabbits fed with ordinary feed. […] 10 μl of the enzyme liquid was added to the resulting solution and reacted at 37° C. for 5 minutes (for small intestine-derived enzyme liquids, for 3 minutes), and thereafter 3 ml of chloroform/methanol (2/1) and 0.5 ml of 0.04 N HCl were added thereto to stop the reaction. After the reaction, lipids were extracted from the reaction mixtures. The solvent layer was concentrated to dryness, then dissolved in hexane, spotted on a TLC plate (produced by Merck), and developed thereon with a developer of hexane/ether/acetic acid (75/25/1) The radioactivity of the thus-fractionated cholesterol ester fraction was measured with BAS2000 (produced by Fuji Film).

[2] = molecular target: T2, ACAT in J774 cell (Mus musculus, UniProt Q61263); assay: ACAT inhibiting activity in J774 cell (anti-foaming activity); format: cell-based; details: for IC50 (HepG 2)/IC50 (J 774): ratio of the two cell IC50 values; for IC50: J774 cell, 10 μg/ml 25-OH cholesterol, 18 hours, cholesterol ester per protein, read-out: J 774 Cell-Derived Enzyme IC50
T2 construct: endogenous in cells; host or cells: J774 cells
T2 sequence (Q61263 1-540): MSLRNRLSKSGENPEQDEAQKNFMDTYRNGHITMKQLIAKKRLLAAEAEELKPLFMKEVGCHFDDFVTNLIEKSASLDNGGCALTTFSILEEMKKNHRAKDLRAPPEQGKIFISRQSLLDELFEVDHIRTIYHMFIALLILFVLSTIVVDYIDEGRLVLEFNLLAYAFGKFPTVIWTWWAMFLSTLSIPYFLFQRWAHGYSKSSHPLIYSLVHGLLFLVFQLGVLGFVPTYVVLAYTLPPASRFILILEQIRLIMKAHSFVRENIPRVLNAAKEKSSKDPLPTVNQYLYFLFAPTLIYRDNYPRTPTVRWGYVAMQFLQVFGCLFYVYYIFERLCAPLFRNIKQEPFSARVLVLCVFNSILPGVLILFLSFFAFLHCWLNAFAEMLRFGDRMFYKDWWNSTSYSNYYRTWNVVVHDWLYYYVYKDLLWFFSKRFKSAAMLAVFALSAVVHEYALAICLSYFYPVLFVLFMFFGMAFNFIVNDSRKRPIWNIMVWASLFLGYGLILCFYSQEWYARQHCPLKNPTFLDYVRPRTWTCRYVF
Protocol: (§2) ACAT inhibiting activities in J774 cell and HepG2 cell (Anti-foaming activities).
(§3) J774 cell and HepG2 cell were sown on 24-holes-plates, and J774 cell was cultured with DMEM culturing solution (including 10% fetal bovine serum) and HepG2 cell was cultured with MEM culturing solution (including 10% fatal bovine serum) and they were incubated with 5% CO2 at 37° C. for 24 hours. […] After redwing the medium, each cultured cell was washed with PBS two ties, and then extracted with 1.5 ml of hexane:iso-propanol (3:2), and concentrated and dried. Each extracted substance was dissolved into iso-propanol including 0.2 ml of 10% Triton X-100. And total cholesterol (TC) of each was measured with Cholesterol E Test Wako (Wako Junyaku Co.), and free cholesterol […] of each was measured with Free Cholesterol E Test Wako (Wako Junyaku Co.). The residue of extracting was dissolved with 0.25 ml of 2N NaOH at 37° C. for 30 minutes, and an amount of protein was measured with BCA Protein Assay Reagent (Pierce). The amount of cholesterol ester per protein was calculated based on a difference between TC and FC, and IC50 was calculated in contrast with control.

[3] = system: ACAT in HepG2 cell; assay: ACAT inhibiting activity in HepG2 cell; format: cell-based; details: 10 μg/ml 25-OH cholesterol, 18 hours, cholesterol ester per protein, read-out: HepG 2-Derived Enzyme IC50
Protocol: as §2, §3

[4] = molecular target: ACAT (blood vessel wall-derived enzyme) (Oryctolagus cuniculus, UniProt G1SUQ0); assay: ACAT inhibiting activity, blood vessel wall-derived enzyme liquid (thoracoaorta microsomes); format: biochemical, rabbit; details: microsomes from thoracoaorta of rabbits fed 1% cholesterol feed; 14C-oleoyl-CoA; 37° C. 5 minutes
Protocol: as §1

[5] = Deterioration action of cholesterol in plasma, F1B hamster on hyperfat foods; format: in vivo, BIO F1B hybrid syrian hamster; details: for inhibiting an increase (%): 4th week, against hyperfat and ordinal foods groups; for Total Cholestrol in Plasma, At the 4th Week: fed 4 weeks
Protocol: A deterioration action of cholesterol in plasma was tested with BIO F1B hybrid syrian hamster (Mark C. K. et al., Atheorosclerosis, 91 (1991) 35-49: abbreviated as FIB hamster in the following) which has an accumulation of Cholesterol in blood vessel by cholesterol load. That is 4 groups of FIB hamster (male, 8 weeks old, about 100 g weight) were made, which had five hamsters respectively, and the hamsters were fed with the below-described feeds corresponding to each group for 4 weeks. At the 4th week from beginning feed, blood of the hamsters were drawn from their jugulars; and values of total cholesterols in plasma were measured with the enzyme method.

[6] = group (3): 0.03% compound added to hyperfat foods
[7] = group (4): 0.3% compound added to hyperfat foods

ACAT (blood vessel wall-derived enzyme), sequence (G1SUQ0 entry or part of it): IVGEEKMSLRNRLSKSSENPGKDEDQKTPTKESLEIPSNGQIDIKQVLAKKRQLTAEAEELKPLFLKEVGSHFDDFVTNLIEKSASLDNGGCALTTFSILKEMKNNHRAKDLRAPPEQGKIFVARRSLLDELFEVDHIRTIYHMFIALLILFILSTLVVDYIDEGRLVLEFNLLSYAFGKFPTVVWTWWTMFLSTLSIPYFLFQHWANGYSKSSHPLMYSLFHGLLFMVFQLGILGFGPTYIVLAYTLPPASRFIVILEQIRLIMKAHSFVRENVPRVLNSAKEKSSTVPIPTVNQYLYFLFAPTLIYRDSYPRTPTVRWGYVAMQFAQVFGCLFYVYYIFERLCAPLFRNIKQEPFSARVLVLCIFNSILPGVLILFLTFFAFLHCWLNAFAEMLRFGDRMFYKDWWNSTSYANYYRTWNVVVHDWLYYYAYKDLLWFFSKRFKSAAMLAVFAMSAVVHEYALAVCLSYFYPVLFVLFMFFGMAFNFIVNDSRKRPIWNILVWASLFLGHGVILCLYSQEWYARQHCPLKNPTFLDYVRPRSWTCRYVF

| Structure (SMILES) | IC50 [1] [nM] | IC50 (HepG 2)/IC50 (J 774) [2] | IC50 [3] [nM] | IC50 [2] [nM] | also measured |
| --- | --- | --- | --- | --- | --- |
| CC(C)c1cccc(C(C)C)c1NC(=O)C(C)(C)CCCOc1ccc2c(c1)C=C(c1nccn1C)C(CCc1ccc(F)cc1)O2 (stereo not shown) [Control (1), 5-[2-(2-(4-fluorophenyl)ethyl)-3-(1-methyl-1H-imidazol-2-yl) -2H-benzopyran-6-yl]oxy-2,2-dimethyl-N-(2,6-diisopropylphenyl)pentanamide, reference compound] | 870 | 9.46 | – | – | – |
| CCCCCCCCCCCCCCSCC(=O)Nc1c(C(C)C)cccc1C(C)C [Control (2), N-(2,6-diisopropylphenyl) -2-(tetradecylthio)acetamide, reference compound] | – | – | 1400 | 150 | – |
| CCCCCCCN(CCCCCSc1nc(-c2ccccc2)c(-c2ccccc2)[nH]1)c1nc2ccccc2o1 [Control (4), N4-[5-(4,5-diphenyl-1H-imidazol-2-ylthio)pentyl]-N-heptyl-2-benzoxazolamine, reference compound] | 37 | 6.26 | – | 120 | IC50 [4]: 26 nM |
| CC(C)c1cccc(C(C)C)c1NC(=O)CSc1nc2ccccc2o1 [Example 1, 2-(benzoxazol-2-ylthio)-N-(2,6-diisopropylphenyl)acetamide] | – | 0.83 | 1000 | 1200 | – |
| CC(C)c1cccc(C(C)C)c1NC(=O)CCCCCCCCSc1nc2ccccc2o1 [Example 8, 9-(benzoxazol-2-ylthio)-N-(2,6-diisopropylphenyl)nonanamide] | – | – | – | – | inhibiting an increase (%) [5, 6]: 80.5%; Total Cholestrol in Plasma, Before Dosage [5, 6]: 155.5 ± 10.1 mg/dL; Total Cholestrol in Plasma, At the 4th Week [5, 6]: 398.3 ± 64.3 mg/dL; inhibiting an increase (%) [5, 7]: 111.7%; Total Cholestrol in Plasma, Before Dosage [5, 7]: 164.3 ± 8.8 mg/dL; Total Cholestrol in Plasma, At the 4th Week [5, 7]: 170.1 ± 18.5 mg/dL |

Now from value to molecule, other results behind:

| IC50 [1] [nM] | IC50 (HepG 2)/IC50 (J 774) [2] | IC50 [3] [nM] | IC50 [2] [nM] | Structure (SMILES) | also measured |
| --- | --- | --- | --- | --- | --- |
| – | 2.55 | 1200 | 470 | CC(C)c1cccc(C(C)C)c1NC(=O)CCSc1nc2ccccc2o1 [Example 2, 3-(benzoxazol-2-ylthio)-N-(2,6-diisopropylphenyl)propanamide] | – |
| 65 | – | – | – | CC(C)c1cccc(C(C)C)c1NC(=O)CCCCCSc1nc2ccccc2o1 [Example 5, 6-(benzoxazol-2-ylthio)-N-(2,6-diisopropylphenyl)hexanamide] | IC50 [4]: 10 nM |
| – | 6.45 | 12000 | 2200 | CC(C)c1cccc(C(C)C)c1NC(=O)CSc1nc2ccccc2[nH]1 [Example 23, 2-(benzimidazol-2-ylthio)-N-(2,6-diisopropylphenyl)acetamide] | – |
| – | 0.38 | 2100 | 5600 | CC(C)c1cccc(C(C)C)c1NC(=O)CCCSc1nc2ccccc2s1 [Example 44, 4-(benzothiazol-2-ylthio)-N-(2,6-diisopropylphenyl)butanamide] | – |
